Like-named read-outs stand apart in the source and are kept apart here.
Assays:
Type in all cases: cell-based, Staphylococcus aureus
[1] = test system: biofilm cells of the S. aureus strain (ATCC 6538); assay: Biofilm analysis by fluorescence microscopy (SYTO-9/PI); conditions: SYTO-9/PI staining, S. aureus ATCC 6538, 24 hours
Protocol: Briefly, 1×10^7 cells were loaded in 96-well plate, and treated with active compounds. Plate was sealed, and incubated for 24 hours at 37°C. Following incubation, plate was washed with sterile distilled water, and cells were stained with […] SYTO-9 and 5 μM PI, for 30 minutes in dark at room temperature. After incubation, the wells were washed again, and air dried. Images were taken, and then visualized by Nikon Eclipse TE2000, USA [23]. Propidium Iodide (PI) staining indicates membrane integrity, as it can only pass through compromised membranes of non-viable cells, giving red fluorescence. On the contrary, Syto-9 can pass through all cells despite of their membrane integrity, and binds to DNA/RNA by emitting green fluorescence.

[2] = test system: S. aureus biofilm; assay: Atomic force microscopy analysis of biofilm disruption; conditions: compared to control S. aureus cells, 24 hours
Protocol: The size and structure of disrupted biofilm was analyzed. Briefly, a pure single colony of S. aureus was inoculated in BHI broth and grown for 18–24 hours at 37°C. Following incubation, the cells were diluted in BHI broth, and density was adjusted to 1×10^7 before loading on a sterile silicon chip placed in 24-well plate, then silicon chips were treated with active compounds. The plate was then sealed, and placed in an incubator for 24 hours at 37°C. After incubation, the treated silicon chips were washed with autoclaved distilled water thrice, air dried, and the samples were analyzed by atomic force microscope (Agilent Technologies, USA).

[3] = test system: biofilm of S. aureus ATCC 6538; assay: 96-well plate crystal violet assay for biofilm inhibition; conditions: for inhibition at 3.125 µg/mL / inhibition at 6.25 µg/mL / inhibition at 12.5 µg/mL / inhibition at 25 µg/mL / inhibition at 50 µg/mL / inhibition at 100 µg/mL: Staphylococcus aureus, ATCC6538
Protocol: The quantitative determination of biofilm inhibition was carried out by the crystal violet assay on a sterile 96-well plate with slight modifications. The glycerol stock of S. aureus was revived overnight at 37°C at 80 rpm. The overnight culture was then diluted 100 folds in fresh BHI broth, supplemented with 0.25% glucose. The cell density was adjusted to 1×10^7 and 195μL of the cell suspension was added in 96-well plate. […] Following that, the plate was washed with sterile distilled water in order to decant the non-adherent cells, and media. The plate was then dried at 60°C for 1 hour, and 200 μL of 0.1% (w/v) crystal violet was added to stain biofilm for 20 minutes. The plate was washed again, air dried, and dispensed 30% (v/v) acetic acid in each well to dissolve the biofilm. The inhibition of biofilm formation was analyzed by measuring the absorbance at 595 nm using the microplate reader (Multiskan Sky, Thermo Scientific, USA). The percent inhibition of biofilm formation was calculated via the following formula: 100−ƛTreated−ƛBlank/ƛControl−ƛBlank×100 Whereƛ=absorbance

[4] = test system: S. aureus; assay: Antibacterial activity (bacterial growth inhibition); conditions: at 100 μg/mL; for inhibition at 100 µg/mL: Staphylococcus aureus, read-out: Antibacterial Activity (% Inhibition ± SEM)
[5] = S. aureus ATCC 6538, replicate 1, read-out: % Inhibition 1
[6] = S. aureus ATCC 6538, replicate 2, read-out: % Inhibition 2
[7] = S. aureus ATCC 6538, replicate 3, read-out: % Inhibition 3
[8] = S. aureus ATCC 6538, read-out: Mean % Inhibition
[9] = 100 µg/mL, S. aureus ATCC 6538, replicate 1, read-out: % Inhibition 1
[10] = 100 µg/mL, S. aureus ATCC 6538, replicate 2, read-out: % Inhibition 2
[11] = 100 µg/mL, S. aureus ATCC 6538, replicate 3, read-out: % Inhibition 3
[12] = 100 µg/mL, S. aureus ATCC 6538, read-out: Mean % Inhibition
[13] = at 100 μg/mL, biofilm of S. aureus, 24 hours, read-out: Antibiofilm Activity (% Inhibition ± SEM)
[14] = at 100 μg/mL, biofilm of S. aureus, 24 hours

Row | SMILES | Biofilm disruption seen by fluorescence microscopy [1] | Biofilm disruption seen by AFM [2] | inhibition at 3.125 µg/mL [3, 5] [%] | inhibition at 3.125 µg/mL [3, 6] [%] | inhibition at 3.125 µg/mL [3, 7] [%] | inhibition at 3.125 µg/mL [3, 8] [%] | inhibition at 6.25 µg/mL [3, 5] [%] | inhibition at 6.25 µg/mL [3, 6] [%] | inhibition at 6.25 µg/mL [3, 7] [%] | inhibition at 6.25 µg/mL [3, 8] [%] | inhibition at 12.5 µg/mL [3, 5] [%] | inhibition at 12.5 µg/mL [3, 6] [%] | inhibition at 12.5 µg/mL [3, 7] [%] | inhibition at 12.5 µg/mL [3, 8] [%] | inhibition at 25 µg/mL [3, 5] [%] | inhibition at 25 µg/mL [3, 6] [%] | inhibition at 25 µg/mL [3, 7] [%] | inhibition at 25 µg/mL [3, 8] [%] | inhibition at 50 µg/mL [3, 5] [%] | inhibition at 50 µg/mL [3, 6] [%] | further results
1 | Cc1ccc2oc(=O)c(/C=N/Nc3nc(-c4ccc(C#N)cc4)cs3)c(Cl)c2c1 [Compound 3, (E)-4-(2-(2-((4-Chloro-6-methyl-2-oxo-2H-chromen-3-yl)methylene)hydrazinyl)thiazol-4-yl)benzonitrile] | mild to extensive biofilm disruption and degradation | disrupt and degrade biofilm to varying degrees | 12.7 | 11.7 | 13.9 | 12.8 | 22.7 | 21.1 | 22.5 | 22.1 | 26.9 | 29.2 | 27.4 | 27.8 | 55.9 | 57.8 | 56.6 | 56.8 | 74 | 76 | inhibition at 50 µg/mL [3, 7]: 77%; inhibition at 50 µg/mL [3, 8]: 75.6%; inhibition at 100 µg/mL [3, 9]: 93.2%; inhibition at 100 µg/mL [3, 10]: 90.2%; inhibition at 100 µg/mL [3, 11]: 93.1%; inhibition at 100 µg/mL [3, 12]: 92.2%; inhibition at 100 µg/mL [3, 13]: 91 ± 6.31%; Antibiofilm Activity (% Inhibition ± SEM) [3, 14]: high potential to inhibit the biofilms; inhibition at 100 µg/mL [4]: 27 ± 6.41%; Antibacterial Activity (% Inhibition ± SEM) [4]: low antibacterial effect
2 | Cc1ccc2oc(=O)c(/C=N/Nc3nc(-c4cccc([N+](=O)[O-])c4)cs3)c(Cl)c2c1 [Compound 2, (E)-4-Chloro-6-methyl-3-((2-(4-(3-nitrophenyl)thiazol-2-yl)hydrazono)methyl)-2H-chromen-2-one] | Disruption on the surface of biofilm | disrupt and degrade biofilm to varying degrees | 4.05 | 3.79 | 4.17 | 4 | 3.29 | 3.99 | 3.49 | 3.59 | 1.73 | 0.99 | 2.54 | 1.75 | 1.79 | 1.44 | 1.99 | 1.74 | 27 | 29.2 | inhibition at 50 µg/mL [3, 7]: 28.5%; inhibition at 50 µg/mL [3, 8]: 28.3%; inhibition at 100 µg/mL [3, 9]: 95%; inhibition at 100 µg/mL [3, 10]: 93.9%; inhibition at 100 µg/mL [3, 11]: 93.6%; inhibition at 100 µg/mL [3, 12]: 94.2%; inhibition at 100 µg/mL [3, 13]: 90 ± 3.24%; Antibiofilm Activity (% Inhibition ± SEM) [3, 14]: high potential to inhibit the biofilms; inhibition at 100 µg/mL [4]: 15 ± 4.53%; Antibacterial Activity (% Inhibition ± SEM) [4]: low antibacterial effect
3 | O=c1oc2ccccc2cc1-c1csc(N/N=C/c2cc(Cl)cc(Br)c2)n1 [Compound 17, (E)-3-(2-(2-(3-Bromo-5-chlorobenzylidene)hydrazinyl)thiazol-4-yl)-2H-chromen-2-one] | Disruption on the surface of biofilm | Disrupted biofilm surfaces | 1.64 | 1.36 | 1.84 | 1.61 | 3.64 | 3.52 | 3.97 | 3.71 | 0.03 | 0.03 | 0.01 | 0.0233 | 15.9 | 15.1 | 16.9 | 15.9 | 55.1 | 53 | inhibition at 50 µg/mL [3, 7]: 57%; inhibition at 50 µg/mL [3, 8]: 55%; inhibition at 100 µg/mL [3, 9]: 77.9%; inhibition at 100 µg/mL [3, 10]: 77.6%; inhibition at 100 µg/mL [3, 11]: 82.3%; inhibition at 100 µg/mL [3, 12]: 79.3%; inhibition at 100 µg/mL [3, 13]: 69 ± 1.75%; Antibiofilm Activity (% Inhibition ± SEM) [3, 14]: high potential to inhibit the biofilms; inhibition at 100 µg/mL [4]: 20 ± 4.64%; Antibacterial Activity (% Inhibition ± SEM) [4]: low antibacterial effect
